In ChEMBL document CHEMBL4382294, “Synthesis of a 6-Aza-Isoindolinone-Based Inhibitor of Phosphoinositide 3-Kinase γ via Ruthenium-Catalyzed [2 + 2 + 2] Cyclotrimerization” (ACS Med Chem Lett, 2019):
pIC50, pKi: −log10 of the molar value.

Columns and labels:
[1] = molecular target: T1, Phosphatidylinositol 4,5-bisphosphate 3-kinase catalytic subunit gamma isoform (Homo sapiens, UniProt P48736); assay: Inhibition of PI3Kgamma in human THP1 cells assessed as reduction in MCP1-induced Akt phosphorylation at Thr308/Ser473 residue preincubated for 1 hr followed by MCP1 stimulation for 3 mins by FACS analysis; assay type: cell-based
T1 sequence (P48736 whole entry, canonical isoform): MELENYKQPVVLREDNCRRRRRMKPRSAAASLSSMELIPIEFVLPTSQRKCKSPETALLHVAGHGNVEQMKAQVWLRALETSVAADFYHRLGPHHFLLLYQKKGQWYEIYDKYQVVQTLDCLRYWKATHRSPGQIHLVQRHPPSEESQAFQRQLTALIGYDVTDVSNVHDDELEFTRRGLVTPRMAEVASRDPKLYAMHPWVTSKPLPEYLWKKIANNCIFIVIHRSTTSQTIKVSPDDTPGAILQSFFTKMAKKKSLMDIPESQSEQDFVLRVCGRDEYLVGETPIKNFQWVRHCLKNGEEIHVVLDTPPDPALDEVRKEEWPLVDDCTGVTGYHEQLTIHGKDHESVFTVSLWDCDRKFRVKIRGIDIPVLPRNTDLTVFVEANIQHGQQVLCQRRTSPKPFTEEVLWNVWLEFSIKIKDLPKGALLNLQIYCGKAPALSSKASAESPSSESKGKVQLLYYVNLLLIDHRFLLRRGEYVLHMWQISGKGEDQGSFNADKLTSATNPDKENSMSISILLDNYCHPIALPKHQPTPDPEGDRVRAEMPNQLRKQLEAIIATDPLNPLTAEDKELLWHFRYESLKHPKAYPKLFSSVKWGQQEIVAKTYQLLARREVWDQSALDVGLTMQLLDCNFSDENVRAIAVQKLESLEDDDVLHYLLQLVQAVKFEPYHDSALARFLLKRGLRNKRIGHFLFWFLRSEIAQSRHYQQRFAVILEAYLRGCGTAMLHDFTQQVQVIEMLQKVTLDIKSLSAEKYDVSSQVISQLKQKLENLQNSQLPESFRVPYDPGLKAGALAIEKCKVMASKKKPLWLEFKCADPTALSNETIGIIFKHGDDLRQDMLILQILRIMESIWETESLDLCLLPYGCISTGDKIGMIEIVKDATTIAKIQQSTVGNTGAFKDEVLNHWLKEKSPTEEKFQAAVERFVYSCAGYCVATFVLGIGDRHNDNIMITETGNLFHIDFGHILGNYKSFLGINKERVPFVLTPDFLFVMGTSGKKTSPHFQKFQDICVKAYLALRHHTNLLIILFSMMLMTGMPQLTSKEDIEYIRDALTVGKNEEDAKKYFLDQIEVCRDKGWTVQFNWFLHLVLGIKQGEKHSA

Homo sapiens [2] = organism: Homo sapiens; assay: Selectivity ratio of IC50 for PI3Kalpha (unknown origin) to IC50 for PI3Kgamma (unknown origin)
Homo sapiens [3] = organism: Homo sapiens; assay: Selectivity ratio of IC50 for PI3Kbeta (unknown origin) to IC50 for PI3Kgamma (unknown origin)
Homo sapiens [4] = organism: Homo sapiens; assay: Selectivity ratio of IC50 for PI3Kdelta (unknown origin) to IC50 for PI3Kgamma (unknown origin)
[5] = molecular target: T1, Phosphatidylinositol 4,5-bisphosphate 3-kinase catalytic subunit gamma isoform; assay: Inhibition of PI3Kgamma (unknown origin) using PIP2 as substrate measured after 15 mins in presence of [33P]ATP by scintillation counting method

pIC50 [1] | Ratio IC50 (Homo sapiens [2]) | Ratio IC50 (Homo sapiens [3]) | Ratio IC50 (Homo sapiens [4]) | pKi [5] | SMILES
7.33 | 65 | 31 | 13 |  | COc1cc(-c2ccc3c(n2)CN(c2cnn(CC(F)(F)F)c2)C3=O)cnc1OC
6.57 | 15 | 8 | 6 | 7.85 | COc1cc(-c2cc3c(c(C)n2)C(=O)N(c2cnn(CC(F)(F)F)c2)C3)cnc1OC
